What was measured:
Assay type in all cases: in vivo
Setaria faberi [1] = assay: Pre-emergence herbicidal activity, glasshouse pot test; details: pre-emergence spray, rate 1000 g/ha, evaluated after 13 days, scale 0-5
In short: (§1)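 Damage was rated at 13 days from 0 (none) to 5 (total), in a glasshouse kept at 24/16 °C, 14 h light and 65% humidity with watering twice daily. The aqueous spray of active ingredient in 50:50 acetone/water plus 0.5% Tween 20 was applied to soil one day post-sowing, before emergence.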

Abutilon theophrasti [2] = assay: as above; details: pre-emergence spray, rate 1000 g/ha, evaluated after 13 days, scale 0-5
In short: as §1

Amaranthus retroflexus [3] = assay: as above; details: pre-emergence spray, rate 1000 g/ha, evaluated after 13 days, scale 0-5
In short: as §1

Alopecurus myosuroides [4] = assay: as above; details: pre-emergence spray, rate 1000 g/ha, evaluated after 13 days, scale 0-5
In short: as §1

Echinochloa crus-galli [5] = assay: as above; details: pre-emergence spray, rate 1000 g/ha, evaluated after 13 days, scale 0-5
In short: as §1

zea mays [6] = assay: as above; details: pre-emergence spray, rate 1000 g/ha, evaluated after 13 days, scale 0-5
In short: as §1

Setaria faberi [7] = assay: Post-emergence herbicidal activity, glasshouse pot test; parameters: key: 0 = no damage to plant, 5 = total damage to plant; details: Application post-emergence, rate 1000 g/ha, evaluated after 13 days
In short: (§2)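 Seeds sown in standard soil in pots, grown 8 days in glasshouse (24/16 °C day/night, 14 h light, 65% humidity), then sprayed with aqueous solution from active ingredient formulated in acetone/water (50:50) with 0.5% Tween 20. Plants regrown under same conditions, watered twice daily; damage scored after 13 days (0 none–5 total).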

Abutilon theophrasti [8] = assay: as above; parameters: key: 0 = no damage to plant, 5 = total damage to plant; details: Application post-emergence, rate 1000 g/ha, evaluated after 13 days
In short: as §2

Amaranthus retroflexus [9] = assay: as above; parameters: key: 0 = no damage to plant, 5 = total damage to plant; details: Application post-emergence, rate 1000 g/ha, evaluated after 13 days
In short: as §2

Alopecurus myosuroides [10] = assay: as above; parameters: key: 0 = no damage to plant, 5 = total damage to plant; details: Application post-emergence, rate 1000 g/ha, evaluated after 13 days
In short: as §2

Echinochloa crus-galli [11] = assay: as above; parameters: key: 0 = no damage to plant, 5 = total damage to plant; details: Application post-emergence, rate 1000 g/ha, evaluated after 13 days
In short: as §2

zea mays [12] = assay: as above; parameters: key: 0 = no damage to plant, 5 = total damage to plant; details: Application post-emergence, rate 1000 g/ha, evaluated after 13 days
In short: as §2

Row | Structure (SMILES) | SETFA damage score, application pre-emergence (Setaria faberi [1]) | ABUTH damage score, application pre-emergence (Abutilon theophrasti [2]) | AMARE damage score, application pre-emergence (Amaranthus retroflexus [3]) | ALOMY damage score, application pre-emergence (Alopecurus myosuroides [4]) | ECHCG damage score, application pre-emergence (Echinochloa crus-galli [5]) | ZEAMX damage score, application pre-emergence (zea mays [6]) | SETFA herbicidal damage score (Setaria faberi [7]) | ABUTH herbicidal damage score (Abutilon theophrasti [8]) | AMARE herbicidal damage score (Amaranthus retroflexus [9]) | ALOMY herbicidal damage score (Alopecurus myosuroides [10]) | ECHCG herbicidal damage score (Echinochloa crus-galli [11]) | ZEAMX herbicidal damage score (zea mays [12])
1 | CC1=C(Cl)C(=O)N(c2cc(C(F)(F)F)c(-c3nn(C)c4ccccc34)cn2)C1O (stereo not drawn) [AF105] | 0 | 0 | 0 | 0 | 0 | 0 | 4 | 5 | 5 | 3 | 2 | 0
2 | CC1=C(Br)C(=O)N(c2cc(C(F)(F)F)ccn2)C1O (stereo not drawn) [AG1] | 3 | 5 | 5 | 2 | 2 | 0 | 5 | 5 | 5 | 4 | 5 | 2
3 | COC1=C(C)C(O)N(c2cc(C(F)(F)F)ccn2)C1=O (stereo not drawn) [AI1, 2-hydroxy-4-methoxy-3-methyl-1-[4-(trifluoromethyl)-2-pyridyl]-2H-pyrrol-5-one] | 5 | 5 | 5 | 4 | 4 | 3 | 5 | 5 | 5 | 4 | 5 | 4
4 | COC1=C(C)C(O)N(c2cc(C(F)(F)F)c(Br)cn2)C1=O (stereo not drawn) [AI2] | 1 | 3 | 5 | 4 | 4 | 2 | 5 | 5 | 5 | 5 | 5 | 4
5 | COC1=C(C)C(O)N(c2cc(OC(F)(F)F)ccn2)C1=O (stereo not drawn) [AI3] | 4 | 4 | 5 | 3 | 4 | 2 | 5 | 4 | 4 | 5 | 5 | 1
6 | COC1=C(C)C(O)N(c2cc(C(C)(C)C)ccn2)C1=O (stereo not drawn) [AI4] | 5 | 4 | 5 | 3 | 4 | 1 | 5 | 5 | 5 | 5 | 5 | 3
7 | CCOC1=C(C)C(O)N(c2cc(C(F)(F)F)ccn2)C1=O (stereo not drawn) [AI5, 4-ethoxy-2-hydroxy-3-methyl-1-[4-(trifluoromethyl)-2-pyridyl]-2H-pyrrol-5-one] | 5 | 4 | 5 | 4 | 4 | 3 | 4 | 5 | 5 | 4 | 5 | 3
8 | COC1=C(C)C(O)N(c2cc(C(F)(F)F)c(C(=O)NC(C)(C)C)cn2)C1=O (stereo not drawn) [AI6] | 5 | 5 | 5 | 4 | 5 | 4 | 5 | 5 | 5 | 5 | 5 | 5
9 | COC1=C(C)C(O)N(c2cc3c(cn2)CCCC3)C1=O (stereo not drawn) [AI7] | 5 | 1 | 3 | 2 | 5 | 0 | 5 | 4 | 3 | 3 | 5 | 1
10 | CCN(CC)C(=O)c1cnc(N2C(=O)C(OC)=C(C)C2O)cc1C(F)(F)F (stereo not drawn) [AI9] | 4 | 5 | 5 | 4 | 5 | 3 | 5 | 5 | 5 | 5 | 5 | 4
11 | C#CCNC(=O)c1cnc(N2C(=O)C(OC)=C(C)C2O)cc1C(F)(F)F (stereo not drawn) [AI10] | 5 | 5 | 5 | 4 | 5 | 4 | 5 | 4 | 5 | 5 | 5 | 5
12 | COC1=C(C)C(O)N(c2cc(C(F)(F)F)c(C(=O)N(C)C)cn2)C1=O (stereo not drawn) [AI11] | 4 | 5 | 5 | 4 | 4 | 4 | 5 | 5 | 5 | 5 | 5 | 4

Reference: patent US9963445B2, “Chemical compounds” (SYNGENTA PARTICIPATIONS AG, priority 2013, dated 2018)
